IC50 and viability, T/C data for 4 molecules are collected here from PubChem BioAssay AID2060887 (Molecular Pharmacology Branch, DTP, NCI, 2025).

One may read the IC50 as the concentration that gives 50% inhibition. As usually defined, the viability, T/C is the result in the treated group divided by that in the control group, in per cent.

Values joined by “and” are separate entries in the source; they are usually repeats but may differ in a detail not shown here. Equal values may be shown once.

This assay relates to 782815-120-R-J1-PDC complex spheroid viability. Briefly: Anticancer human tumor 782815-120-R-J1-PDC patient-derived colon adenocarcinoma cell line growth inhibition [RAS]. To be noted: for viability, T/C: stronger effect = lower value. In outline:
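Agents were tested in combination matrices in half-log decrements from a top concentration at or near clinical Cmax (10 microM if undetermined). Targets were multi-cell spheroids of tumour lines plus HUVEC and MSC stromal cells.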
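Further: spheroids exposed to compounds for 7 days before reading.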
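Wherever viability, T/C is given: 100% = DMSO vehicle control viability.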

Consider `CC(C)NCC(C(=O)N1CCN(c2ncnc3c2C(C)CC3O)CC1)c1ccc(Cl)cc1` (centres undefined) + C#Cc1c(F)ccc2cc(O)cc(-c3ncc4c(N5CC6CCC(C5)N6)nc(OCC56CCCN5CC(F)C6)nc4c3F)c12, for which the half-inhibitory concentration (IC50) (curve of first compound, second compound 0.0316 µM) was > 10 µM; the IC50 (curve of first compound, second compound 0.1 µM) is > 10 µM; the 50% inhibitory concentration (IC50) (curve of first compound, second compound 0.316 µM) is > 10 µM; the concentration for half-maximal inhibition (IC50) (curve of first compound, second compound 1 µM) is > 10 µM; the 50% inhibitory concentration (IC50) (curve of first compound, second compound 3.16 µM) is > 10 µM; the IC50 (curve of first compound, second compound 10 µM) is > 10 µM. Also, the viability, T/C (second compound 0.0316 µM, first compound 0.0316 µM) is 95.9%; the viability, T/C (second compound 0.0316 µM, first compound 0.1 µM) was 106%; the viability, T/C (second compound 0.0316 µM, first compound 0.316 µM) was 95.6%; the viability, T/C (second compound 0.0316 µM, first compound 1 µM) was 103%; the viability, T/C (second compound 0.0316 µM, first compound 3.16 µM) is 96.3%; the viability, T/C (second compound 0.0316 µM, first compound 10 µM) was 94.3%. Also, the viability, T/C is 95.5% (second compound 0.1 µM, first compound 0.0316 µM); 104% (second compound 0.1 µM, first compound 0.1 µM); 101% (second compound 0.1 µM, first compound 0.316 µM); 98.1% (second compound 0.1 µM, first compound 1 µM); 100% (second compound 0.1 µM, first compound 3.16 µM); 97% (second compound 0.1 µM, first compound 10 µM). In addition, the viability, T/C is, setting by setting: (second compound 0.316 µM, first compound 0.0316 µM) 109%; (second compound 0.316 µM, first compound 0.1 µM) 108%; (second compound 0.316 µM, first compound 0.316 µM) 93.5%; (second compound 0.316 µM, first compound 1 µM) 103%; (second compound 0.316 µM, first compound 3.16 µM) 96.3%; (second compound 0.316 µM, first compound 10 µM) 105%. The viability, T/C is 108% (second compound 1 µM, first compound 0.0316 µM); 113% (second compound 1 µM, first compound 0.1 µM); 90.7% (second compound 1 µM, first compound 0.316 µM); 94.6% (second compound 1 µM, first compound 1 µM); 103% (second compound 1 µM, first compound 3.16 µM); 103% (second compound 1 µM, first compound 10 µM). The viability, T/C reads like this: (second compound 3.16 µM, first compound 0.0316 µM) 104%; (second compound 3.16 µM, first compound 0.1 µM) 101%; (second compound 3.16 µM, first compound 0.316 µM) 93.1%; (second compound 3.16 µM, first compound 1 µM) 100%; (second compound 3.16 µM, first compound 3.16 µM) 98.3%; (second compound 3.16 µM, first compound 10 µM) 102%. Besides, the viability, T/C was 103% (second compound 10 µM, first compound 0.0316 µM); 108% (second compound 10 µM, first compound 0.1 µM); 93.4% (second compound 10 µM, first compound 0.316 µM); 101% (second compound 10 µM, first compound 1 µM); 96.5% (second compound 10 µM, first compound 3.16 µM); 98.4% (second compound 10 µM, first compound 10 µM).
Consider `O=C(c1ccc(F)c(F)c1Nc1ccc(I)cc1F)N1CC(O)([C@@H]2CCCCN2)C1`, for which the viability, T/C is, setting by setting: (compound 0.00316 µM) 91.5% [middle of 4 runs]; (compound 0.01 µM) 82.9% [middle of 4 runs]; (compound 0.0316 µM) 66.7% [middle of 4 runs]; (compound 0.1 µM) 38.3% [middle of 4 runs]; (compound 0.316 µM) 19.9% [middle of 4 runs]; (compound 1 µM) 3.13% [middle of 4 runs]. The IC50 (curve of compound) is 66 nM [middle of 4 runs].
Consider `C=CC(=O)Nc1cc(Nc2nccc(-c3cn(C)c4ccccc34)n2)c(OC)cc1N(C)CCN(C)C`, for which the viability, T/C (compound 0.00316 µM) is 93.8% and 93.6% (2×) and 98%; the viability, T/C (compound 0.01 µM) was 99.9% [middle of 4 runs]; the viability, T/C (compound 0.0316 µM) was 96.3% [middle of 4 runs]; the viability, T/C (compound 0.1 µM) was 94.3% [middle of 4 runs]; the viability, T/C (compound 0.316 µM) is 94.1% [middle of 4 runs]; the viability, T/C (compound 1 µM) was 91.1% [middle of 4 runs]. Where the note is “curve of compound”, the 50% inhibitory concentration (IC50) was > 1 µM.
As for `C=CC(=O)N1CCN(c2nc(OCC3CCCN3C)nc3c(F)c(-c4nc(N)cc(C)c4C(F)(F)F)c(Cl)cc23)C(C)C1` (centres undefined), the viability, T/C is 99.4% [middle of 12 runs] (compound 0.00316 µM); 102% [middle of 12 runs] (compound 0.01 µM); 102% [middle of 12 runs] (compound 0.0316 µM); 99.2% [middle of 12 runs] (compound 0.1 µM); 102% [middle of 12 runs] (compound 0.316 µM); 96.7% [middle of 12 runs] (compound 1 µM). Moreover, the IC50 reads like this: (compound alone, run of 07/15/2024) > 1 µM; (curve of compound) > 1 µM.
